Patent publication US9175013B2, “Fused aminodihydrothiazine derivatives” (Eisai R&D Management Co., Ltd., priority 2011, dated 2015)
Like-named read-outs stand apart in the source and are kept apart here.

Assay: Rat in vivo CNS penetration: plasma, brain and CSF concentrations by LC-MS/MS
Settings: male, Sprague Dawley, po, 10 mg/kg, 10 mg/kg p.o.; for concentration at 2 h / Kp at 2 h: 2 h post-dose; for concentration at 4 h / Kp at 4 h: 4 h post-dose; for concentration at 6 h / Kp at 6 h: 6 h post-dose; for concentration at 8 h / Kp at 8 h: 8 h post-dose
Procedure: Rat In Vivo CNS Penetration Male Sprague Dawley rats were acquired from Charles River UK Ltd. (Margate, UK) and housed according to UK Home Office guidelines. Drugs were made up to the appropriate concentrations in 0.5% methyl cellulose. Animals were dosed orally (2 mL/kg) by gavage at the doses outlined in Tables 1 to 4 below. At the time points post-dosing, specified in the Tables 1 to 4 below the animals were administered an i.p. injection of sodium pentobarbitone (approximately 330 mg/kg for terminal anaesthesia). Using a guillotine, the animals were decapitated and trunk blood collected into 15 ml Falcon tubes containing 100 IU heparin. Blood was vortexed followed by centrifugation at 6000 rpm, 4° C. for 5 minutes. Plasma was collected for DMPK and ELISA assays and stored at −80° C. until use. Brains were dissected out and divided along the midline, weighed and stored at −80° C. until further use. Method for Analysis of Plasma, Brain and CSF Samples Test compound was prepared as a 1 mg free base/mL solution in DMSO, vortexed and sonicated for 5 min. The 1 mg/mL DMSO solution was diluted to 10 and 30 μg/mL acetonitrile stocks, by adding 10 μL to 990 μL acetonitrile and 30 μL to 970 acetonitrile, respectively. The 10 and 30 μg/mL acetonitrile stocks were then serially diluted 1:9 (v/v) (100 μL stock into 900 μL acetonitrile) to give the following solutions: 0.003, 0.01, 0.03, 0.1, 0.3, 1, 3, 10 and 30 μg/mL acetonitrile. Control male Sprague Dawley rat plasma and the study plasma samples were stored at −80° C. until the day of analysis when they were thawed at room temperature. Control plasma was centrifuged (2,000 g for 10 min) and aliquoted (90 μL) into eppendorf tubes for preparation of standards and blank samples. Study samples were previously aliquoted (100 μL) into eppendorf tubes immediately following collection of the plasma. An aliquot (10 μL) of the appropriate acetonitrile stock was added to the control plasma (to give a final volume of 100 μL) to give the required calibration standards covering the range 1-3000 ng/mL. Double blank and blank samples were prepared by adding 10 μL of acetonitrile to 90 μL of blank plasma. Control male Sprague Dawley rat brain and the study brain samples were weighed after collection and stored at −80° C. until the day of analysis when they were thawed at room temperature. Once thawed brains were diluted with water (4 mL per gram of tissue) and homogenised using a mechanical homogeniser. An aliquot (100 μL) of each study sample was taken into Micronics tubes ready for analysis and sufficient aliquots (90 μL) of control brain homogenate prepared for preparation of standards and blanks. An aliquot (10 μL) of the appropriate acetonitrile stocks was added to the control brain homogenate (to give a final volume of 100 μL) to give the required calibration standards covering the range 1.5-5000 ng/g. Double blank and blank samples were prepared by adding 10 μL of acetonitrile to 90 μL of blank brain homogenate. Each plasma and brain homogenate sample, standard and blank (100 μL) was extracted with an aliquot (300 μL) of acetonitrile (containing 0.1% formic acid and 100 ng/mL of an appropriate internal standard). Double blanks were extracted with an aliquot (300 μL) of acetonitrile containing 0.1% formic acid). All samples, standards and blanks were then vortex mixed and centrifuged (2000 g for 15 min). An aliquot (50 μL) of the resulting supernatant was then taken into a 2 mL 96-deep well plate and diluted with acetonitrile:water (50:50 v/v) (150 μL) ready for analysis by a specific LC-MS/MS method. Control male Sprague Dawley rat CSF and the study CSF samples were stored at −80° C. until the day of analysis when they were thawed at room temperature. An aliquot (50 μL) of each study sample was taken into Micronics tubes ready for analysis and sufficient aliquots (45 μL) of control CSF prepared for preparation of standards and blanks. […]

[1] = CSF, CSF concentration, read-out: [CSF]
[2] = brain, total brain concentration, read-out: [Br]
[3] = brain, unbound brain, [Br] x Br Fu, read-out: [Bru]
[4] = plasma, total plasma concentration, read-out: [Pl]
[5] = plasma, unbound plasma, [Pl] x Pl Fu, read-out: [Plu]

| concentration at 2 h [1] | Kp at 2 h (CSF, read-out: CSF:Plu) | concentration at 4 h [1] | Kp at 4 h (CSF, read-out: CSF:Plu) | concentration at 6 h [1] | Kp at 6 h (CSF, read-out: CSF:Plu) | concentration at 8 h [1] | Kp at 8 h (CSF, read-out: CSF:Plu) | Kp at 2 h (brain, read-out: Brtot:Pltot) | Kp at 2 h (brain, read-out: Bru:Plu) | concentration at 2 h [2] | concentration at 2 h [3] | Kp at 4 h (brain, read-out: Brtot:Pltot) | Kp at 4 h (brain, read-out: Bru:Plu) | concentration at 4 h [2] | concentration at 4 h [3] | Kp at 6 h (brain, read-out: Brtot:Pltot) | Kp at 6 h (brain, read-out: Bru:Plu) | concentration at 6 h [2] | concentration at 6 h [3] | SMILES | also measured |
| --- | --- | --- | --- | --- | --- | --- | --- | --- | --- | --- | --- | --- | --- | --- | --- | --- | --- | --- | --- | --- | --- |
| 34 nM | 0.6 | 16 nM | 0.5 | 15 nM | 0.5 | 9 nM | 0.7 | 2.8 | 0.7 | 1090 nM | 38 nM | 2.5 | 0.6 | 576 nM | 20 nM | 2.4 | 0.6 | 561 nM | 20 nM | COc1cnc(C(=O)Nc2ccc(F)c([C@]34CO[C@H](C(F)F)[C@H]3CSC(N)=N4)c2)cn1 [Example 3, N-(3-((4aS,5S,7aS)-2-amino-5-(difluoromethyl)-4a,5,7,7a-tetrahydro-4H-furo[3,4-d][1,3]thiazin-7a-yl)-4-fluorophenyl)-5-methoxypyrazine-2-carboxamide] | Kp at 8 h (brain, read-out: Brtot:Pltot): 3; Kp at 8 h (brain, read-out: Bru:Plu): 0.7; concentration at 8 h [2]: 257 nM; concentration at 8 h [3]: 9 nM; concentration at 2 h [4]: 385 nM; concentration at 2 h [5]: 55 nM; concentration at 4 h [4]: 226 nM; concentration at 4 h [5]: 32 nM; concentration at 6 h [4]: 232 nM; concentration at 6 h [5]: 33 nM; concentration at 8 h [4]: 85 nM; concentration at 8 h [5]: 12 nM |
| 33 nM | 0.6 | 40 nM | 0.6 | 13 nM | 0.6 | 8 nM | 0.6 | 3.8 | 0.6 | 1470 nM | 31 nM | 3.4 | 0.5 | 1620 nM | 34 nM | 3.8 | 0.6 | 609 nM | 13 nM | COc1cnc(C(=O)Nc2cc(F)c(F)c([C@]34CO[C@H](CF)[C@H]3CSC(N)=N4)c2)cn1 [Example 4, N-(3-((4aS,5S,7aS)-2-amino-5-(fluoromethyl)-4a,5,7,7a-tetrahydro-4H-furo[3,4-d][1,3]thiazin-7a-yl)-4,5-difluorophenyl)-5-methoxypyrazine-2-carboxamide] | Kp at 8 h (brain, read-out: Brtot:Pltot): 3.7; Kp at 8 h (brain, read-out: Bru:Plu): 0.6; concentration at 8 h [2]: 385 nM; concentration at 8 h [3]: 8 nM; concentration at 2 h [4]: 392 nM; concentration at 2 h [5]: 51 nM; concentration at 4 h [4]: 482 nM; concentration at 4 h [5]: 63 nM; concentration at 6 h [4]: 162 nM; concentration at 6 h [5]: 21 nM; concentration at 8 h [4]: 105 nM; concentration at 8 h [5]: 14 nM |

| SMILES | concentration at 2 h [1] | Kp at 2 h (CSF, read-out: CSF:Plu) | concentration at 4 h [1] | Kp at 4 h (CSF, read-out: CSF:Plu) | concentration at 6 h [1] | Kp at 6 h (CSF, read-out: CSF:Plu) | concentration at 8 h [1] | Kp at 8 h (CSF, read-out: CSF:Plu) | Kp at 2 h (brain, read-out: Brtot:Pltot) | Kp at 2 h (brain, read-out: Bru:Plu) | concentration at 2 h [2] | concentration at 2 h [3] | Kp at 4 h (brain, read-out: Brtot:Pltot) | Kp at 4 h (brain, read-out: Bru:Plu) | concentration at 4 h [2] | concentration at 4 h [3] | Kp at 6 h (brain, read-out: Brtot:Pltot) | Kp at 6 h (brain, read-out: Bru:Plu) | concentration at 6 h [2] | concentration at 6 h [3] | also measured |
| --- | --- | --- | --- | --- | --- | --- | --- | --- | --- | --- | --- | --- | --- | --- | --- | --- | --- | --- | --- | --- | --- |
| COc1cnc(C(=O)Nc2ccc(F)c([C@]34CO[C@H](CF)[C@H]3CSC(N)=N4)c2)cn1 [Example 2, N-(3-((4aS,5S,7aS)-2-amino-5-(fluoromethyl)-4a,5,7,7a-tetrahydro-4H-furo[3,4-d][1,3]thiazin-7a-yl)-4-fluorophenyl)-5-methoxypyrazine-2-carboxamide] | 133 nM | 0.6 | 201 nM | 1.2 | 60 nM | 0.7 | 68 nM | 1.2 | 2.1 | 0.6 | 1780 nM | 118 nM | 2.1 | 0.5 | 1340 nM | 88 nM | 2 | 0.5 | 703 nM | 46 nM | Kp at 8 h (brain, read-out: Brtot:Pltot): 2.1; Kp at 8 h (brain, read-out: Bru:Plu): 0.6; concentration at 8 h [2]: 479 nM; concentration at 8 h [3]: 32 nM; concentration at 2 h [4]: 850 nM; concentration at 2 h [5]: 214 nM; concentration at 4 h [4]: 645 nM; concentration at 4 h [5]: 163 nM; concentration at 6 h [4]: 353 nM; concentration at 6 h [5]: 89 nM; concentration at 8 h [4]: 224 nM; concentration at 8 h [5]: 56 nM |
